Test results published in patent US20070243238A1, “Treating mouth sores with patches adhered to teeth” (priority 2006, published 2007).

System: mouth sores
Assay: Experimentation with amoxicillin on conventional patches for mouth sores
Format: in vivo, human
Details: amoxicillin powder for oral suspension massaged into conventional patch and dried
Text: Because use of antibiotics, antibacterials, and other pharmaceutical antimicrobials causes adverse side effects, experimentation with these medications has been limited. […] Conventional amoxicillin powder for preparation of oral suspension was used, which includes sugars and other excipients. The sugars act as a binder to the oral patch. The oral suspension is massaged into the patch and dried. Preferably, the amoxicillin powder is mixed into a stronger than normal liquid before being added to the patch.

## CC1(C)S[C@@H]2[C@H](NC(=O)[C@H](N)c3ccc(O)cc3)C(=O)N2[C@H]1C(=O)O [amoxicillin]
  effect of medication on patch in treating mouth sores: works quite well
